Test results: article PMC9604400, “Synthesis, Anticancer and Antitubercular Properties of New Chalcones and Their Nitrogen-Containing Five-Membered Heterocyclic Hybrids Bearing Sulfonamide Moiety” (International Journal of Molecular Sciences, 2022)

What was measured:
[1] = test system: 60 human cancer cell lines; assay: NCI-60 screen (SRB), whole panel; format: cell-based; details: Homo sapiens
leukemia cell lines = assay: NCI-60 screen (SRB), leukemia panel; format: cell-based; details: Homo sapiens; leukemia panel, single dose 10 μM; read-out: GI (growth inhibition), range over panel
breast cancer cell lines = assay: NCI-60 screen (SRB), breast cancer panel; format: cell-based; details: Homo sapiens, single dose 10 μM, read-out: GI (growth inhibition), range over panel
HL-60(TB) = assay: cells; details: Homo sapiens
CCRF-CEM = assay: NCI-60 screen (SRB), leukemia; details: Homo sapiens
K-562 = assay: NCI-60 screen (SRB), leukemia; details: Homo sapiens
MOLT-4 = assay: NCI-60 screen (SRB), leukemia; details: Homo sapiens
RPMI-8226 = assay: NCI-60 screen (SRB), leukemia; details: Homo sapiens
SR = assay: NCI-60 screen (SRB), leukemia; details: Homo sapiens
MALME-3M = assay: NCI-60 screen (SRB), melanoma; details: Homo sapiens
MDA-MB-435 = assay: NCI-60 screen (SRB), melanoma; details: Homo sapiens
UACC-62 = assay: NCI-60 screen (SRB), melanoma; details: Homo sapiens
SF-295 = assay: NCI-60 screen (SRB), CNS cancer; details: Homo sapiens
SF-539 = assay: NCI-60 screen (SRB), CNS cancer; details: Homo sapiens
SNB-19 = assay: NCI-60 screen (SRB), CNS cancer; details: Homo sapiens
COLO 205 = assay: NCI-60 screen (SRB), colon cancer; details: Homo sapiens
HCC-2998 = assay: NCI-60 screen (SRB), colon cancer; details: Homo sapiens
HCT-15 = assay: NCI-60 screen (SRB), colon cancer; details: Homo sapiens
HT29 = assay: NCI-60 screen (SRB), colon cancer; details: Homo sapiens
SW-620 = assay: NCI-60 screen (SRB), colon cancer; details: Homo sapiens
786-0 = assay: NCI-60 screen (SRB), renal cancer; details: Homo sapiens
CAKI-1 = assay: NCI-60 screen (SRB), renal cancer; details: Homo sapiens
MDA-MB-231/ATCC = assay: NCI-60 screen (SRB), breast cancer; details: Homo sapiens
HS 578T = assay: NCI-60 screen (SRB), breast cancer; details: Homo sapiens, Hs-578T
T-47D = assay: NCI-60 screen (SRB), breast cancer; details: Homo sapiens, T47D
IGROV1 = assay: NCI-60 screen (SRB), ovarian cancer; details: Homo sapiens
OVCAR-3 = assay: NCI-60 screen (SRB), ovarian cancer; details: Homo sapiens
OVCAR-4 = assay: NCI-60 screen (SRB), ovarian cancer; details: Homo sapiens
PC-3 = assay: NCI-60 screen (SRB), prostate cancer; details: Homo sapiens
DU-145 = assay: NCI-60 screen (SRB), prostate cancer; details: Homo sapiens
A549/ATCC = assay: NCI-60 screen (SRB), non-small cell lung cancer; details: Homo sapiens
EKVX = assay: NCI-60 screen (SRB), non-small cell lung cancer; details: Homo sapiens
NCI-H226 = assay: NCI-60 screen (SRB), non-small cell lung cancer; details: Homo sapiens

COc1cc(OC)c(S(N)(=O)=O)cc1C(=O)C=Cc1ccccc1 [Compound 17a, 5-Cinnamoyl-2,4-dimethoxybenzenesulfonamide]
IC50 ([1]; five-dose screen, read-out: IC50 values against most cell lines (range)): 0.34 to 17.6 µM
inhibition at 10 µM ([1]; single dose 10 μM, mean over 60 cell lines, over 100% = cell death, read-out: Mean growth inhibition (GI) percentage): 71.8%
inhibition at 10 µM (leukemia cell lines): 70.8 to 94.8%
inhibition at 10 µM (breast cancer cell lines): 73.5 to 100%
IC50 (HL-60(TB); HL-60): 2.27 µM
CC50 (HL-60(TB); HL-60, read-out: LC50): > 100 µM
IC50 (CCRF-CEM): 3.93 µM
CC50 (CCRF-CEM; read-out: LC50): > 100 µM
IC50 (K-562; K562): 1.5 µM
CC50 (K-562; K562, read-out: LC50): > 100 µM
IC50 (MOLT-4; MOLT-4): 10.1 µM
CC50 (MOLT-4; MOLT-4, read-out: LC50): > 100 µM
IC50 (RPMI-8226; RPMI-8226): 2.98 µM
CC50 (RPMI-8226; RPMI-8226, read-out: LC50): > 100 µM
IC50 (SR): 1.73 µM
CC50 (SR; read-out: LC50): > 100 µM
IC50 (MALME-3M): 13.9 µM
CC50 (MALME-3M; read-out: LC50): 61.9 µM
IC50 (MDA-MB-435; MDA-MB-435): 2.12 µM
CC50 (MDA-MB-435; MDA-MB-435, read-out: LC50): 35.9 µM
IC50 (UACC-62; UACC-62): 12.2 µM
CC50 (UACC-62; UACC-62, read-out: LC50): 59.4 µM
IC50 (SF-295; SF-295): 15.7 µM
CC50 (SF-295; SF-295, read-out: LC50): 58.2 µM
IC50 (SF-539; SF-539): 2.44 µM
CC50 (SF-539; SF-539, read-out: LC50): 30.1 µM
IC50 (SNB-19; SNB-19): 14 µM
CC50 (SNB-19; SNB-19, read-out: LC50): 58 µM
IC50 (COLO 205; COLO 205): 10.6 µM
CC50 (COLO 205; COLO 205, read-out: LC50): 54.2 µM
IC50 (HCC-2998; HCC 2998): 12.5 µM
CC50 (HCC-2998; HCC 2998, read-out: LC50): 54.7 µM
IC50 (HCT-15; HCT-15): 3.55 µM
CC50 (HCT-15; HCT-15, read-out: LC50): 57.5 µM
IC50 (HT29; HT-29): 4.02 µM
CC50 (HT29; HT-29, read-out: LC50): 42.5 µM
IC50 (SW-620; SW-620): 2.68 µM
CC50 (SW-620; SW-620, read-out: LC50): 48.5 µM
IC50 (786-0; 786-0): 4.82 µM
CC50 (786-0; 786-0, read-out: LC50): 63.2 µM
IC50 (CAKI-1; CAKI-1): 1.86 µM
CC50 (CAKI-1; CAKI-1, read-out: LC50): 39.5 µM
IC50 (MDA-MB-231/ATCC; MDA-MB-231): 11.9 µM
CC50 (MDA-MB-231/ATCC; MDA-MB-231, read-out: LC50): 61.6 µM
IC50 (HS 578T): 5.89 µM
CC50 (HS 578T; read-out: LC50): > 100 µM
IC50 (T-47D): 2.09 µM
CC50 (T-47D; read-out: LC50): 51.6 µM
IC50 (IGROV1; IGROV-1): 9.74 µM
CC50 (IGROV1; IGROV-1, read-out: LC50): 77 µM
IC50 (OVCAR-3; OVCAR-3): 2.71 µM
CC50 (OVCAR-3; OVCAR-3, read-out: LC50): 38.3 µM
IC50 (OVCAR-4; OVCAR-4): 11.8 µM
CC50 (OVCAR-4; OVCAR-4, read-out: LC50): 55.9 µM
IC50 (PC-3; PC-3): 5.95 µM
CC50 (PC-3; PC-3, read-out: LC50): 50.4 µM
IC50 (DU-145; DU-145): 1.88 µM
CC50 (DU-145; DU-145, read-out: LC50): 38.1 µM
IC50 (A549/ATCC; A549): 10.5 µM
CC50 (A549/ATCC; A549, read-out: LC50): 49 µM
IC50 (EKVX): 14.2 µM
CC50 (EKVX; read-out: LC50): 53.6 µM
IC50 (NCI-H226; NCI-H226): 10 µM
CC50 (NCI-H226; NCI-H226, read-out: LC50): 69.2 µM
